# Publication PMC8668186, “Molecular architecture of the human tRNA ligase complex” (eLife, 2021)
# Target: T1, RTCB (Homo sapiens, UniProt Q9Y3I0)
# T1 construct: full length (505 residues), N-terminal His6 tag removed with TEV protease, expressed in Sf9 insect cells; model residues 3-505 with gaps
# T1 sequence (Q9Y3I0 1-505): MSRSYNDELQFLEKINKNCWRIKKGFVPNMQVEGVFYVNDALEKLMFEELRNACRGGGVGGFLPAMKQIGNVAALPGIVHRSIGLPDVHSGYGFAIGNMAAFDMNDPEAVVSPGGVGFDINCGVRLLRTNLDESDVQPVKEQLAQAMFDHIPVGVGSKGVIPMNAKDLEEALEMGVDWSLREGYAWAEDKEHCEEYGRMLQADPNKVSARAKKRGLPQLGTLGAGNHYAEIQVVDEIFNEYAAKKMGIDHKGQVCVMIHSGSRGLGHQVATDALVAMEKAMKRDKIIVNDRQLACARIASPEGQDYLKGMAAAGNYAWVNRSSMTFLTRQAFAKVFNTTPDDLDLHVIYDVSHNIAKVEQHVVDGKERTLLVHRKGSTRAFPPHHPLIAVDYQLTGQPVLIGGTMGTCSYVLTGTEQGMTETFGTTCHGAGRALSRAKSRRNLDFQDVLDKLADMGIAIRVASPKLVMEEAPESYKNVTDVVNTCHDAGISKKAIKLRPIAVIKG
# Assay: X-ray crystal structure, […] Å
# Assay type: binding
# Conditions: two Co2+ ions in active site, crystallised at pH 5.5, 20 °C, 5 mM CoCl2, 0.5 mM GMP, non-covalent product-bound state
compound,measurement,value
Nc1nc2c(ncn2[C@@H]2O[C@H](COP(=O)(O)O)[C@@H](O)[C@H]2O)c(=O)[nH]1 [GMP],"X-ray crystal structure, 2.3 Å",crystal structure of human RTCB in complex with a GMP molecule and two divalent cobalt
